{"source": "paper PMC11204760", "about": "“New Cyclic Pentapeptides from the Mangrove-Derived Aspergillus fumigatus GXIMD 03099” (Marine Drugs, 2024)", "key": {"[1]": {"test_system": "newly hatched larvae of Culex quinquefasciatus", "test": "Insecticidal activity against newly hatched Culex quinquefasciatus larvae", "assay_type": "in vivo", "details": "25 ± 1 °C, 80% relative humidity, dead larvae recorded on 2nd, 4th, 6th and 8th days, two sets of replicates, azadirachtin positive control", "description": "The insecticidal activity against Culex quinquefasciatus larvae was evaluated according to methods reported in the literature. Newly hatched larvae were housed at 25 ± 1 °C and 80% relative humidity. Two sets of replicates were set up with dimethyl sulfoxide as a negative control, azadirachtin as a positive control, and artificial feed as a blank control. The number of dead larvae was recorded on 2nd, 4th, 6th, and 8th days after treatment."}, "[2]": {"test_system": "Vibrio harveyi (ATCC 14126)", "assay_type": "cell-based", "details": "V. harveyi ATCC 14126, microplate assay; chloromycetin positive control", "description": "Antibacterial activity was determined against nine pathogenic bacteria, including six Gram-positive bacteria—Methicillin-resistant Staphylococcus aureus (ATCC 43300), […], Staphylococcus albus (ATCC 8799), Staphylococcus aureus (ATCC 6538), Bacillus subtilis (ATCC 21332), and […] —and three Gram-negative bacteria—Vibrio parahaemolyticus (ATCC 17802), V. alginolyticus (ATCC 17749), and V. harveyi (ATCC 14126)—by the microplate assay method. Chloromycetin was used as the positive control."}, "[3]": {"details": "cited from earlier work", "text": "(§1) Cyclic pentapeptides, a subclass of cyclic peptides, are usually constructed by five amino acid residues. To date, about 60 cyclic pentapeptides have been characterized. Among them, avellanins A–C were exclusively found in Hamigera avellanea, Hamigera ingelheimensis, and Aspergillus petrakii, respectively. […] During our continuing efforts to identify new bioactive metabolites from mangrove-derived fungi [[20],[21],[ ..."}, "quorum-sensing": {"test_system": "quorum-sensing", "details": "cited from earlier work", "text": "as §1"}}, "note": "Where a SMILES comes first, the peptide text is derived from it. [ ]: non-standard residue; d: D form. dNMeF = CN[C@H](Cc1ccccc1)C(=O)O; Pip = O=C(O)[C@@H]1CCCCN1; 2Abz = Nc1ccccc1C(=O)O; Abu = CC[C@H](N)C(=O)O"}
{"compound": "CC[C@H](C)[C@@H]1NC(=O)[C@@H](C)NC(=O)[C@@H](Cc2ccccc2)N(C)C(=O)[C@@H]2CCCCN2C(=O)c2ccccc2NC1=O", "note": "[compound 2, avellanin E] (cyclo([Pip][dNMeF][dA]I[2Abz]))", "values": [{"measurement": "LC50, insecticidal activity", "setting": "[1]", "value": 86.6, "unit": "µM"}]}
{"compound": "CC[C@@H]1NC(=O)[C@@H](C)NC(=O)[C@@H](Cc2ccccc2)N(C)C(=O)[C@@H]2CCCN2C(=O)c2ccccc2NC1=O", "note": "[compound 4, avellanin G] (cyclo(P[dNMeF][dA][Abu][2Abz]))", "values": [{"measurement": "MIC", "setting": "[2]", "value": 5.85, "unit": "µM"}]}
{"compound": "L-Pro-Ant-L-Ile-D-Ala-N-Me-D-Phe (head to tail) [compound 5, avellanin A, known cyclic pentapeptide isolated from the fungus]", "values": [{"measurement": "effect on blood pressure", "setting": "[3]", "value": "elevates blood pressure"}]}
{"compound": "avellanin B [compound 6]", "values": [{"measurement": "effect on activity of antineoplastic drugs", "setting": "[3]", "value": "improves the activity of antineoplastic drugs"}]}
{"compound": "avellanin C", "values": [{"measurement": "quorum-sensing inhibitory activity", "setting": "quorum-sensing", "value": "exhibits quorum-sensing inhibitory activity"}]}
